# According to PMC9739882, “Main Determinants Affecting the Antiproliferative Activity of Stilbenes and Their Gut Microbiota Metabolites in Colon Cancer Cells: A Structure–Activity Relationship Study” (International Journal of Molecular Sciences, 2022):
# Read-outs that look alike come from different tables or passages of the source.
# Experiments:
# CCD18-Co cells = test: MTT antiproliferative assay in non-tumorigenic CCD18-Co cells; assay type: cell-based; conditions: Homo sapiens, CCD-18Co, 72 h, non-tumorigenic colon cells
# Method: (§1) The cell lines were obtained from the American Type Culture Collection (ATCC, Rockville, MD, USA) and cultured according to the ATCC. The human colon cancer cell lines Caco-2 (p53-null) and HT-29 (mutant p53), and non-tumorigenic colon cells CCD18-Co (wild-type p53) were grown as reported elsewhere. All tested compounds were solubilized in DMSO (<0.5% in the culture medium) and filter-sterilized (0.2 μm) before addition to the culture media. […] The effects of the compounds on Caco-2, HT-29, and CCD18-Co cell viability and proliferation were measured using the MTT reduction assay according to Giménez-Bastida et al.. Data are presented as the mean ± standard deviation (SD) of at least three independent experiments (n = 2 wells for each compound (dose and time point) per experiment). Then, IC50 antiproliferative values were determined using a four-parameter logistic regression fit. The calculations were performed using the online tool Quest Graph^TM IC50 Calculator (AAT Bioquest, Inc., Sunnyvale, CA, USA (https://www.aatbio.com/tools/ic50-calculator, accessed on 26 April 2022).
# Caco-2 cells [1] = test: MTT antiproliferative assay in Caco-2 cells; assay type: cell-based, human; conditions: for IC50: Homo sapiens, Caco-2, antiproliferative, MTT, mean ± SD (n = 3)
# Method: as §1
# [2] = parameters: method as in PMID 35981285; conditions: cited from earlier work
# Caco-2 cells [3] = test: Apoptosis induction in Caco-2 cells (Annexin V/PI, flow cytometry); assay type: cell-based, human; conditions: Caco-2, 72 h, compound at its IC50 concentration
# Method: (§2) The effects of all the compounds at their corresponding IC50 values for 3 days of treatment on cell cycle distribution in Caco-2 cells were measured as described previously. Data are shown as the mean ± SD of 3 independent experiments (2 wells per treatment) for each time point. In addition, the apoptosis induction exerted by all the compounds at their corresponding IC50 values for 3 days of treatment was examined using the Annexin V/PI detection kit (Molecular Probes, ThermoFisher Scientific, Madrid, Spain) as described previously. Briefly, 20,000 Caco-2 cells per sample were analyzed by flow cytometry (Coulter, EPICS XL-MCL, Miami, FL, USA), and staurosporine 5 μM was used as a standard inducer of apoptosis. Finally, the percentage of alive (negative in both annexin V-FITC and PI), early apoptotic (positive in annexin V-FITC and negative in PI), late apoptotic (positive in both annexin V-FITC and PI), and necrotic cells (only positive in PI) was calculated. Data are shown as the mean ± SD of 3 independent experiments (2 wells per treatment) for each time point.
# HT-29 cells [4] = test: MTT antiproliferative assay in HT-29 cells; assay type: cell-based, human; conditions: for IC50: Homo sapiens, HT-29, antiproliferative, MTT, mean ± SD (n = 3); for IC50 decrease from 48 to 72 h in HT-29: ratio of IC50 at 48 h vs 72 h (Figure S1)
# Method: as §1
# Caco-2 cells [5] = test: Cell cycle distribution in Caco-2 cells (flow cytometry); assay type: cell-based, human; conditions: Caco-2, 72 h, compound at its IC50 concentration, p < 0.05 vs control
# Method: as §2
# Caco-2 cells [6] = test: Phase-II metabolism of compounds by Caco-2 cells (UPLC-QTOF-MS of culture media); assay type: in vitro ADME, human; conditions: 50 μM, 72 h incubation
# Method: (§3) Briefly, cell culture supernatants were collected at the end of the experiment and analyzed to measure the presence and concentration of the tested compounds. First, ACN (200 μL) was added per 200 μL of culture media, vortexed, and centrifuged at 16,435× g for 10 min. The supernatant was then concentrated in a Speedvac® concentrator (Savant SPD 121P), and then the residue was redissolved in 100 μL of MeOH and filtered (0.45 μm) before analysis by UPLC-QTOF-MS.
# (§4) Briefly, the analyses were performed on an Agilent 1290 Infinity UPLC system coupled to a 6550 Accurate-Mass quadrupole-time-of-flight (QTOF) mass spectrometer (Agilent Technologies, Waldbronn, Germany) using an electrospray interface (Jet Stream Technology). Chrysin was used as an internal control of the ionization signal. Spectra were acquired in the m/z range from 100 to 1100, in negative polarity mode (m/z^−) and an acquisition rate of 1.5 spectra/s. Data were processed using the Mass Hunter Qualitative Analysis software (version B.06.00, Agilent). […]
# (§5) A direct comparison with the available standards was used to identify the different metabolites. […] In addition, using extracted ion chromatograms (EICs) for area calculation and quantification reduced the possibility of misinterpreting overlapping peaks.
# HT-29 cells [7] = test: Phase-II metabolism of compounds by HT-29 cells (UPLC-QTOF-MS of culture media); assay type: in vitro ADME, human; conditions: 50 μM, 24 h incubation
# Method: as §3, §4, §5
# [8] = 48 h, read-out: IC50 Caco-2 (48 h)
# [9] = 72 h, read-out: IC50 Caco-2 (72 h)
# [10] = 48 h, read-out: IC50 HT-29 (48 h)
# [11] = 72 h, read-out: IC50 HT-29 (72 h)
SMILES,IC50 (CCD18-Co cells),IC50 (Caco-2 cells [1]; [8]),IC50 (Caco-2 cells [1]; [9]),concentration reached in the human colon [2],early-phase apoptotic cells vs control cells (Caco-2 cells [3]),IC50 (HT-29 cells [4]; [10]),IC50 (HT-29 cells [4]; [11]),cell cycle phase increase vs control (Caco-2 cells [5]),late-phase apoptotic cells vs control cells (Caco-2 cells [3]),compound metabolized by Caco-2 cells after 72 h (Caco-2 cells [6]),IC50 decrease from 48 to 72 h in Caco-2 (Caco-2 cells [1]; ratio of IC50 at 48 h vs 72 h (Figure S1)),compound metabolized by HT-29 cells after 24 h (HT-29 cells [7]),IC50 decrease from 48 to 72 h in HT-29 (HT-29 cells [4])
"Oc1ccc(CCc2cc(O)cc(O)c2)cc1 [DHRSV, Dihydroresveratrol]",53 µM,55.4 ± 10.8 µM,33.8 ± 17.8 µM,> 100 µM,statistically significant (p < 0.05),> 100 µM,69 ± 9.3 µM,,,,,,
"Oc1ccc(C=Cc2cccc(O)c2)cc1 [DHST, 3-(4-hydroxystyryl)phenol]",,57.1 ± 10.2 µM,22.7 ± 6.4 µM,,statistically significant (p < 0.05),64.8 ± 15.6 µM,48.3 ± 17.8 µM,"significant increase (p < 0.05) was observed at both phases, S and G2/M",significant differences (p < 0.05),,,,
"Oc1ccc(/C=C/c2ccccc2)cc1 [4HST, 4-Hydroxy-trans-stilbene]",,26.9 ± 8 µM,11.4 ± 10.1 µM,,,34 ± 8.1 µM,24.4 ± 11.3 µM,"significant increase (p < 0.05) was observed at both phases, S and G2/M",significant differences (p < 0.05),hardly metabolized,5 fold,fully metabolized,1.4 fold
"Oc1cc(O)cc(CCc2ccccc2)c1 [DHP, 3-hydroxy-(5-phenethyl)phenol]",,54 ± 3.1 µM,73.9 ± 13.8 µM,,statistically significant (p < 0.05),> 100 µM,82.4 ± 12.1 µM,,,,,,
"Oc1cc(O)cc(/C=C/c2ccc(O)cc2O)c1 [Oxy-RSV, 3,5,2′,4′-tetrahydroxy-trans-stilbene]",,74.7 ± 11.5 µM,55.4 ± 2.5 µM,,statistically significant (p < 0.05),96.7 ± 2.4 µM,83.4 ± 5.8 µM,,significant differences (p < 0.05),,,,
"Oc1cc(O)cc(/C=C/c2ccccc2)c1 [PINO, 3,5-dihydroxy-trans-stilbene]",,55.3 ± 12.7 µM,26.4 ± 7.1 µM,,statistically significant (p < 0.05),37.5 ± 14.3 µM,38.1 ± 8 µM,,,,,,no change
"OCc1ccc(/C=C/c2ccccc2)cc1 [4STMe, trans-4-stilbenemethanol]",,88.3 ± 14.6 µM,59.9 ± 23.1 µM,,statistically significant (p < 0.05),85.4 ± 16.5 µM,57.1 ± 18.9 µM,,,,,,
"Oc1cc(O)cc(/C=C/c2ccc(O)c(O)c2)c1 [PICE, 3,5,3′,4′-tetrahydroxy-trans-stilbene]",,55.4 ± 10.8 µM,42 ± 9.8 µM,,statistically significant (p < 0.05),78.5 ± 5.7 µM,69.5 ± 4.6 µM,,significant differences (p < 0.05),,,,
"Oc1ccc(/C=C/c2cc(O)cc(O)c2)cc1 [RSV, 3,5,4′-trihydroxy-trans-stilbene]",,50.4 ± 3.4 µM,18.8 ± 1.6 µM,,,68.9 ± 22.6 µM,59.1 ± 9.9 µM,,significant differences (p < 0.05),14%,,100%,
"Oc1cccc(CCc2ccccc2)c1 [3HDB, 3-(2-phenylethyl)phenol]",,> 100 µM,42.9 ± 4.1 µM,,statistically significant (p < 0.05),> 100 µM,81.7 ± 15.5 µM,,,,,,
"COc1cc(/C=C/c2ccc(O)cc2)cc(OC)c1 [PTERO, 3,5-dimethoxy, 4′-hydroxy-trans-stilbene]",,67.6 ± 12.3 µM,43 ± 11.6 µM,,statistically significant (p < 0.05),45.1 ± 13.7 µM,37.9 ± 5.4 µM,significant increase (p < 0.05) was observed only at the G2/M phase,significant differences (p < 0.05),,,,
"Oc1ccc(CCc2ccccc2)cc1 [4HDB, 4-(2-phenylethyl)phenol]",,> 100 µM,56.9 ± 8 µM,,,> 100 µM,96.7 ± 6.7 µM,,,,,,
"Oc1ccc(CCc2cccc(O)c2)cc1 [LUNU, 3-(4-hydroxyphenethyl)phenol]",67 µM,84.5 ± 11.7 µM,50.5 ± 23.1 µM,> 100 µM,,> 100 µM,53.2 ± 6.8 µM,,,,,,
